This test concerns CEM cells HIV-1 protection, formazan growth assay. Description: NCI AIDS Antiviral Assay. The following applies: for IC50: measured here: growth of uninfected CEM cells. The gist of the method: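 Screen of anti-HIV-1 activity in human CEM cells using a formazan-based growth measurement at five drug concentrations. Hits with 50% or greater protection were repeated, and confirmation required reproducible complete protection.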

“And” between values parts separate entries of the source, which are not always exact repeats. Equal entries are not always repeated. The source made the active and inactive calls.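 The calls were made as follows: active = compounds giving half or more protection of infected cells from virus-caused growth loss, again on retest; inactive = the rest.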

Usually EC50 stands for the concentration that produces a half-maximal response. Broadly, the IC50 is the concentration that gives 50% inhibition. A higher IC50 goes with lower potency. For `C=CCNC(=S)/N=C1\N=S(C)(=O)c2ccccc21` (stereo not drawn), the EC50 is over 891 µM and the IC50 is over 891 µM.
Take `COc1nc(C(=O)O)c(Cl)c(OC)c1Cl`: the EC50 was over 513 µM and the IC50 is over 513 µM.
In the case of `N[C@H]1c2ccsc2C(=O)[C@H]1O`, the EC50 is over 1 µM and the IC50 was over 1 µM.
As to `COc1ccc(OC)c(/C=C2\CCc3ccccc3C2=O)c1`, the EC50 was over 17.8 µM and the IC50 was determined as 2.88 µM.
Turning to `O=C1/C(=C/c2ccc(Cl)cc2)CCCc2ccccc21`, the EC50 is over 200 µM and the IC50 is 22.9 µM.
The matching figures for `NC(=O)OCC(COc1ccc(Cl)cc1)OC(=O)c1ccccc1Cl` (stereo not drawn): over 93.3 µM and 70.8 µM.
Consider `O=C1NC(N/N=C\c2ccccc2)=N/C1=C/c1ccc(Cl)cc1`, for which the result was inactive.
As to `O=C(O)c1cccc(OCCOc2cccc(C(=O)O)c2[N+](=O)[O-])c1[N+](=O)[O-]`, the EC50 is over 200 µM and the IC50 is over 200 µM.
Consider `c1ccc2c3c([nH]c2c1)[C@@H]1CCN2CCC[C@@H]2N1CC3`, for which the EC50 is over 200 µM and the IC50 turned out to be 97.7 µM.
Consider `O=C(O)CN1CCN(CC(=O)O)CCN(CC(=O)O)CC1`, for which the EC50 was over 100 µM and the IC50 was 1.82 µM.
In the same order, the values of `c1ccc2c3c([nH]c2c1)[C@H]1C2CCCCN2CN1CC3` (stereo partly drawn) are over 676 µM and 214 µM.
On to `CC1=CC(C)(C)NC(=S)N1CCO`, for which the result was inactive.
On to `CC(F)(C(N)=O)C(N)=O`, for which the EC50 is over 200 µM and the IC50 was over 200 µM.
Turning to `Oc1ccc(SCc2cc(O)c(O)c(O)c2)cc1`, the EC50 was over 200 µM and the IC50 was determined as 6.92 µM.
In the same order, the values of `CC(C)CCN(CCC(C)C)CC(=O)Nc1ccc(S(=O)(=O)c2ccc(NC(=O)CN(CCC(C)C)CCC(C)C)cc2)cc1` are over 100 µM and 1.62 µM.
`O=C(O)c1cccc(Nc2ccccc2C(=O)O)c1`: the EC50 was over 513 µM and the IC50 was over 513 µM.
Regarding `CC(C)C1OCC(CO)CO1` (stereo not drawn), the EC50 was over 200 µM and the IC50 is over 200 µM.
Consider `CCC[N+]1=C/c2ccccc2OC(=O)/C=C\1[O-]`, for which the EC50 is over 200 µM and the IC50 is over 200 µM.
With `Nc1ccc2c(c1)C(=P(c1ccccc1)(c1ccccc1)c1ccccc1)c1ccccc1-2`, the EC50 is over 200 µM and the IC50 was 10.7 µM.
On to `CC(C)=CCC[C@@H](C)C1=C(N)C(O)=C(C)C(=O)C1=O`, for which the EC50 was over 200 µM and the IC50 turned out to be 13.5 µM.
The matching figures for `Cc1ccc([N+](=O)[O-])cc1NC(=O)C(=O)C1CCC2=C(Sc3ccccc3N2)C1=O` (stereo not drawn): over 117 µM and over 117 µM.
With `O=C(C(=NC12CC3CC(CC(C3)C1)C2)NNc1ccc([N+](=O)[O-])cc1[N+](=O)[O-])C(Br)C(=O)c1ccccc1` (stereo not drawn), the EC50 is over 200 µM and the 50% inhibitory concentration (IC50) was 107 µM.
Take `Cn1ccnc1Cn1cc(-c2cccc(-c3cn[nH]c3)c2)cn1`: the outcome was inactive.
Take `O=C1C(=O)N(C(=O)c2ccc(Cl)c(Cl)c2)c2ccccc21`: the outcome was inactive.
In the case of `C=CC[C@]12CC(=O)OC(C=CC13OCCO3)C2`, the EC50 is over 200 µM and the 50% inhibitory concentration (IC50) was over 200 µM.
Take `CC(=O)/C(=C/c1cccc(Br)c1)C(=O)c1ccccc1`: the EC50 is over 21.9 µM and the IC50 worked out at 11.2 µM.
For `CCc1ccccc1NC(=O)CCc1nc(=S)[nH][nH]1`, the EC50 was over 912 µM and the IC50 is over 912 µM.
For `NC(=O)C12CC3CC(CC(Br)(C3)C1)C2`, the EC50 was over 977 µM and the IC50 came out at 891 µM.
The matching figures for `O=C1CSC(c2cccc(Cl)c2)N1N1C(=O)CSC1c1cccc(Cl)c1` (stereo not drawn): over 200 µM and 66.1 µM.
In the same order, the values of `[Ni+2].[O-]/C(=N\N=C/c1cccc(C(F)(F)F)c1)c1ccncc1.[O-]/C(=N\N=C\c1cccc(C(F)(F)F)c1)c1ccncc1` are over 100 µM and 15.8 µM.
The matching figures for `CCOC(=O)C(C1=C(O)c2ccccc2C(=O)C1=O)C1=C(O)c2ccccc2C(=O)C1=O`: over 200 µM and 67.6 µM.
In the case of `O=C(Nc1nccs1)c1cc(C2=CC=CC([N+](=O)[O-])C=C2)nc(=S)[nH]1` (stereo not drawn), the EC50 was over 95.5 µM and the IC50 is over 95.5 µM.
Regarding `COc1ccc(/C=c2\sc3nc(-c4ccccc4)nn3c2=O)cc1`, the EC50 is 182 µM and the IC50 is 195 µM.
The matching figures for `CCC(C)OC(=O)/C(Br)=C1/OC(=O)c2ccccc2-c2ccccc21` (stereo not drawn): over 200 µM and 47.9 µM.
The matching figures for `O=S(=O)(O)SCC1=NCCN1`: over 200 µM and over 200 µM.
As to `CC(C)(SSC(C)(C)C(N)C(=O)O)C(N)C(=O)O` (stereo not drawn), the EC50 is over 427 µM and the IC50 was over 427 µM.
As for `Cn1c(=O)cc(N=Nc2ccc(Cl)c(Cl)c2)[nH]c1=O`, the EC50 was over 200 µM and the IC50 was found to be 16.2 µM.
In the same order, the values of `C(=C1/NC(c2ccccc2)=Nc2ccccc21)/c1ccccc1` are over 6.76 µM and over 6.76 µM.
Turning to `CCOC(=O)CCC(NC(=O)C(CCC(=O)OCC)NC(=O)C(Cc1ccc([N+](=O)[O-])cc1)NC(C)=O)C(=O)NNC(=O)OC(C)(C)C` (stereo not drawn), the EC50 was over 200 µM and the IC50 is over 200 µM.
On to `Cc1cc2c(cc1C)C(=O)C1(C2)Cc2c(C)ccc(C)c2C1=O` (stereo not drawn), for which the EC50 is over 100 µM and the IC50 is over 100 µM.
For `O=C(Oc1cc(=O)c(OC(=O)c2ccccc2)co1)c1ccccc1`, the EC50 is over 200 µM and the IC50 is 110 µM.
For `Cc1nc(Nc2ccccc2Cl)sc1C(=O)CC(=O)C(N)=O`, the EC50 is over 200 µM and the IC50 is over 200 µM.
Take `Cc1cn(COCCS(=O)c2ccccc2)c(=O)[nH]c1=O` (stereo not drawn): the EC50 was over 200 µM and the IC50 is over 200 µM.
For `COC(=O)C1=C(C)NC(CF)=C(C(=O)OC)C1c1cccc2c(=O)c3ccccc3oc12` (stereo not drawn), the EC50 was over 200 µM and the IC50 stood at 3.47 µM.
As to `Cc1ccc(NC=O)c(-c2c(N)[nH]c(=S)[nH]c2=O)c1`, the EC50 was over 200 µM and the IC50 was determined as 148 µM.
With `CCOC(=O)/C(=C\c1cccc(F)c1)[Se]c1ccccc1`, the EC50 is over 38.9 µM and the IC50 was over 38.9 µM.
On to `Cc1ccc(-c2cc(=O)c(=O)[nH][nH]2)cc1`, for which the EC50 was over 200 µM and the IC50 is over 200 µM.
As for `C#CCNC(CCCN=C(N)N)C(=O)O` (stereo not drawn), the EC50 is over 200 µM and the IC50 was over 200 µM.
On to `CCS(=O)(=O)c1c2cc(OC)ccc2nc2ccc(OC)cc12`, for which the EC50 is over 200 µM and the IC50 is over 200 µM.
Turning to `CN(C)c1ccc2c(c1)-c1cc(N(C)C)ccc1C2=C/C=C1\C(=O)c2ccccc2C1=C(C#N)C#N`, the EC50 is over 15.5 µM and the concentration for half-maximal inhibition (IC50) was over 15.5 µM.
For `COc1ccc(-c2coc3c4c(c5c(c3c2=O)OC(C)(C)CC5)OC(C)(C)C=C4)cc1OC`, the EC50 was over 39.8 µM and the concentration for half-maximal inhibition (IC50) worked out at 12.3 µM.
For the molecule `COc1ccc2c(c1)O[C@]1(O)c3cc4c(cc3O[C@@H]1C2)OCO4`, the EC50 is over 12 µM and the IC50 is over 12 µM.
On to `CC[C@]1(Cc2ccc(OC)c(OC)c2)C=[N+]([O-])O[C@H](OC2CCCC2(c2ccccc2)c2ccccc2)[C@@H]1OC(C)=O` (stereo partly drawn), for which the EC50 was over 200 µM and the IC50 stood at 3.8 µM.
Take `COC(=O)[C@@H]1CO[C@H](C(C)(C)C)N1C(=O)N1C=CC(=O)C[C@H]1C`: the EC50 was over 200 µM and the IC50 was over 200 µM.
As to `O=c1[nH][nH]c(=O)c2c1ccc1oc3ccccc3c12`, the EC50 was over 200 µM and the IC50 is over 200 µM.
For the molecule `COc1cc2c(cc1OC)C(=O)N1CCCC1C(=O)S2` (stereo not drawn), the result was inactive.
For `NC1=N[C@H]2CS[C@@H](CCCCC(=O)ON3C(=O)CCC3=O)[C@H]2N1`, the EC50 was over 589 µM and the IC50 was over 589 µM.
For `CC(=O)Nc1ccc(/C=N/Nc2nnc(N/N=C/c3ccc(NC(C)=O)cc3)c3ccccc23)cc1`, the EC50 was over 200 µM and the IC50 came to 7.59 µM.
As for `CCCCCCCCC1=C(OC)C(=O)c2cccnc2C1=O`, the outcome was inactive.
For `CCc1c(O)n(Cc2ccccc2)c(=S)n(Cc2nc3ccccc3[nH]2)c1=O`, the EC50 was over 200 µM and the IC50 is over 200 µM.
As to `Cc1cccc2c1Oc1ccccc1C2NC(=O)CN(C)C` (stereo not drawn), the EC50 is over 437 µM and the IC50 amounted to 83.2 µM.
Regarding `Cc1cc2c(cc1C)[n+](=O)c(N1CCN(c3ccc([N+](=O)[O-])cc3)CC1)c(C#N)n2[O-]`, the EC50 was over 50.1 µM and the IC50 was over 50.1 µM.
For `CC(C)c1nsc(N)c1C(N)=O`, the EC50 was over 200 µM and the IC50 is over 200 µM.
With `Cn1c(-c2ccc(-c3cc(-c4cccs4)c(-c4cccs4)n3C)cc2)cc(-c2cccs2)c1-c1cccs1`, the EC50 is over 200 µM and the IC50 was over 200 µM.
`NC(=O)C(c1ccccc1)N1CCCCC1` (stereo not drawn): the result was inactive.
As to `CCOP(=O)(OCC)/C(C#N)=C/c1ccccc1`, the EC50 is over 676 µM and the IC50 is over 676 µM.
Take `COc1ccc(NC(=O)C(=O)Cc2nc3ccc(C(=O)c4ccccc4)cc3[nH]c2=O)c([N+](=O)[O-])c1`: the EC50 is over 195 µM and the IC50 was 51.3 µM.
For `Cc1cn2c(n1)Nc1sc3c(c1C2)CCCC3`, the EC50 was over 200 µM and the IC50 was 30.2 µM.
Take `O=C(Nc1ccccn1)/C(=C\C(=O)c1ccc(Cl)cc1)Nc1ccccc1`: the EC50 was over 200 µM and the IC50 came out at 174 µM.
As to `CCOC(=O)c1sc2c(C(=O)OCC)n3cc(C)cc(C)c3c2c1O`, the outcome was inactive.
With `Cc1ccc(C(CC(=O)C(C)(C)CN2CCCCC2)SCCS(=O)(=O)O)cc1` (stereo not drawn), the EC50 was over 200 µM and the IC50 is 3.63 µM.
In the same order, the values of `O=C1c2ccccc2-c2c1c1ccccc1c(=O)n2CCO` are over 34.7 µM and 1.95 µM.
Regarding `Cc1cn(C2CC(N(C)O)C(CO)O2)c(=O)[nH]c1=O` (stereo not drawn), the concentration for a half-maximal effect (EC50) is 31.6 µM and > 200 µM; the IC50 is > 200 µM and 33.1 µM.

These data come from PubChem BioAssay AID179 (DTP/NCI, 2004).
